From patent publication US20120171123A1, “USES AND COMPOSITIONS FOR TREATMENT OF RHEUMATOID ARTHRITIS” (priority 2006, published 2012)

Legend:
[1] = system: RA patients treated with adalimumab in clinical trials in North America and Europe
Description: The rate of TB was calculated for the period before screening was initiated (primarily Phase I trials) and the period after screening was implemented. The screening program consisted of a clinical interview, a tuberculin skin test, and, in most patients, a chest X-ray (CXR). The definition of PPD-positive depended on local country-specific guidelines. For those people who were PPD-positive, or for whom the investigator felt the risk of TB reactivation was high, INH was given for prophylaxis.
The methodology differed among protocols. For instance, in Europe and Australia, it was initially used CXR only, and in later studies, CXR and purified protein derivative skin test (PPD) were both used. By contrast, in US and Canada, CXR and PPD were both used.

[2] = system: MTX-naïve adult patients with early RA (<3 years); test: Study J: escalation of injectable medicine from eow to weekly dosing; type: in vivo, human
Description: Study J was a 2-year, double-blind, active comparator-controlled, Phase III study. […] In patients receiving ADA+MTX or MTX monotherapy, the 7.5 mg MTX weekly dosage increased to 20 mg over 8 weeks, as tolerated and as needed. Monotherapy patients received either placebo pills (adalimumab arm) or placebo injections (MTX arm). Efficacy outcomes measured included ACR response, DAS28 remission, major clinical response, and radiographic change from baseline.
MTX optimization was required before starting weekly injections (to 20 mg weekly, maximum). Once initiated, weekly dosing of injectable medicine was to be maintained until end of study. Criteria for identification of dosage escalators were a sequence of 4 consecutive injections for which the interval for every two consecutive injections was ≦10 days, and/or that the date of escalation, defined as the second of the 4 injections, had to be on or after Week 16 in Year 1. Three dosage escalator categories were defined, based on best ACR response rate achieved any time prior to escalation: Group A=ACR non-responders (never achieved ACR20 prior to dosage escalation), Group B=Partial responders (achieved ACR20 or ACR50 at least once prior to escalation, but never ACR70), and Group C=ACR70 responders (achieved ACR70 at least once prior to escalation). Data are from the intention-to-treat (ITT) population, with missing data analyzed by non-responder imputation (NRI) for clinical measures and by linear imputation for total Sharp scores (TSS).

[3] = system: patients with long-standing RA who had inadequate responses to MTX; test: Study 1 (adalimumab + MTX vs placebo + MTX, 12-month RCT plus OLE): radiographic progression (TSS, JE, JSN); type: in vivo, human
Description: The study design included a 12 month, double blind, randomized, placebo-controlled trial.
Patients were grouped into three cohorts based on baseline CRP concentrations: low (<1 mg/dL); intermediate (1-4 mg/dL); and high (>4 mg/dL). Analyses were further conducted in two categories of patients according to their change in CRP concentrations at Week 12: those with a ≧20% decrease in CRP from baseline; or those with a <20% decrease in CRP from baseline. The following efficacy and radiographic measures were analyzed at Week 52 in the three baseline CRP categories and in the two Week 12 change in CRP categories: DAS28, ACR 20/50/70, Health assessment questionnaire (HAQ), and Total Sharp score (TSS).
Two readers assessed X-rays performed at baseline (start of RCT), 1 year (end of RCT), and 3 years (post 2 years OLE). Changes from baseline in Total Sharp Score (TSS), Joint Erosions (JE), and Joint Space Narrowing (JSN) were calculated. ACR 20, 50, and 70 response rates, as well as TJC and SJC, were also measured.

[4] = system: patients with moderate to severe RA; test: Study 1: Health Utilities Index Mark 3 (HUI3); type: in vivo, human; conditions: week 52
Description: The HUI3 was assessed at baseline, and at several time points during the study. Health Utility Index 3 (scale=0-1) measures preference of a health state, with “1” denoting perfect health and “0” denoting death. HUI3 changes of ≧0.03 are considered clinically important. The HUI3 classification system consists of 8 attributes and 5 or 6 levels on each attribute, ranging from full function to severe impairment.

[5] = system: patients with RA; test: Study I (adalimumab 40 mg eow + MTX vs placebo + MTX, 24 weeks): FACIT-F fatigue; type: in vivo, human; conditions: for mean FACIT-F change from baseline: week 24 (6 months)
Description: FACIT-F was administered at baseline, at 1 or 2 time points during the study, and at the end of the study. The questionnaire asked each patient the following “Below is a list of statements that other people with your illness have said are important. By circling one (1) number per line, please indicate how true each statement has been for you during the past 7 days.” The questions in the questionnaire used to determine the FACIT score included the following, where each patient indicated the appropriate number (0-4): I feel fatigued; I feel weak all over; I feel listless (“washed out”); I feel tired; I have trouble starting things because I am tired; I have trouble finishing things because I am tired; I have energy; I am able to do my usual activities; I need to sleep during the day; I am too tired to eat; I need help doing my usual activities; I am frustrated by being too tired to do the things I want to do; I have to limit my social activity because I am tired. FACIT-F scores range from 0-52, with higher scores representing less fatigue. FACIT-F changes of ≧4 are considered clinically meaningful.
For Study I, the mean change in baseline for the FACIT-F score at 6 months was 8.1 for ada 40 mg eow+mtx and 2.5 for placebo+mtx (p=0.01). The minimum clinical important difference was determined to be ≧4.0.

[6] = system: patients with RA; test: Study I: HUI3 health utility; type: in vivo, human; conditions: for mean HUI3 change from baseline: week 24 (6 months)
Description: Inclusion criteria for this study included: all patients had severe active disease; and all patients had failed prior DMARD(s).
The Health Utilities Index Mark 3 (HUI3) was assessed at three time points. HUI 3 consists of 8 attributes: vision, hearing, speech, ambulation, dexterity, emotion, cognition, and pain. HUI3 score changes of ≧0.03 are considered clinically important. […] As can also be seen in this figure, the Study 2 study population started with baseline values reflecting a patient population with a more severe disease activity than in Study I, as documented by TJC, SJC, HAQ, CRP, and number of previous DMARDs.

Structure (SMILES): NNC(=O)c1ccncc1 [INH, isoniazid, reference compound]
- patients who developed TB after INH prophylaxis ([1]; 835 patients who received INH): 0.5%
- subjects who developed TB after INH prophylaxis ([1]; Study A, 712 high-risk subjects given INH before adalimumab): 0.6%

Structure (SMILES): CN(Cc1cnc2nc(N)nc(N)c2n1)c1ccc(C(=O)N[C@@H](CCC(=O)O)C(=O)O)cc1 [MTX Monotherapy]
- Patients who became ACR20 responders after increase to weekly dosing ([2]; 1 year): 4%
- Patients who became ACR50 responders after increase to weekly dosing ([2]; 1 year): 1%
- Patients who reached DAS28 < 2.6 (remission) after increase to weekly dosing ([2]; 1 year): 0%
- Patients who became ACR20 responders after increase to weekly dosing ([2]; 2 years): 4%
- Patients who became ACR50 responders after increase to weekly dosing ([2]; 2 years): 2%
- Patients who reached DAS28 < 2.6 (remission) after increase to weekly dosing ([2]; 2 years): 1%
- Patients with Major Clinical Response after increase to weekly dosing ([2]; ACR70 for ≧6 consecutive months over a 2-year period): 1%

Structure (SMILES): CN(Cc1cnc2nc(N)nc(N)c2n1)c1ccc(C(=O)N[C@@H](CCC(=O)O)C(=O)O)cc1 [placebo+mtx, methotrexate]
- mean change from baseline in Total Sharp Score ([3]; 12 months (blinded)): 2.8
- mean change from baseline in joint erosion score ([3]; 12 months (blinded)): 1.7
- mean change from baseline in joint space narrowing score ([3]; 12 months (blinded)): 1.2
- mean change from baseline in joint erosion score ([3]; 36 months (open-label)): 1.7
- mean change from baseline in joint space narrowing score ([3]; 36 months (open-label)): 1.3
- mean change from baseline in Total Sharp Score ([3]; 36 months (open-label; all patients on adalimumab 40 mg eow + mtx after month 12)): 3.0
- mean HUI3 improvement from baseline [4]: +0.07
- relative HUI3 improvement from baseline [4]: +18%
- relative FACIT-F change from baseline ([5]; week 24): +9%
- mean FACIT-F change from baseline [5]: 2.5
- mean FACIT-F change from baseline ([5]; listed as placebo + MTX): +2.5
- relative HUI3 change from baseline ([6]; week 24): +10%
- mean HUI3 change from baseline [6]: 0.04
- mean HUI3 change from baseline ([6]; listed as Placebo + mtx): 0.04
- mean HUI3 change from baseline ([6]; listed as placebo + MTX): +0.04
